The source of these data is PubChem BioAssay AID1320 (NMMLSC, 2008).

Molecules are shown by their SMILES. The source made the active and inactive calls. No rule for the calls is given here.

Bcl-2-related protein A1 (Homo sapiens), sequence (Q16548 whole entry, looked up): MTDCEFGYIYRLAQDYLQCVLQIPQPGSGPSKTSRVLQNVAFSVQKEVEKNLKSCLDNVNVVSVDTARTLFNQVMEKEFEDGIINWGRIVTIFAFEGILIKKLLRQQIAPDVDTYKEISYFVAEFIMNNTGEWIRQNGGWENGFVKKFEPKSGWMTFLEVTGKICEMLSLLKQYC

This experiment has as its target Bcl-2-related protein A1 (Homo sapiens) (UniProt Q16548). Put plainly: Bfl-1/Bim complex disruptors – biochemical, multiplexed, bead-based flow cytometry, dose response (AID 1320). Also: test concentration not given here. Conditions: Bim peptide-Bfl-1 binding, fluorescence.
Consider `C=CCN1C(=O)/C(=C/c2ccsc2)SC1=S`, for which the “percent span (inhibition)” value is “inactive”.
The entry for `CCCCCCc1cc2cc(C(=O)Nc3ccccc3)c(=O)oc2cc1O` is “inactive”; for `N/C(=N\OC(=O)CCC1CCCC1)c1ccncc1` it is “inactive”; for `NC(=O)c1sc2nc3c(c(-c4ccco4)c2c1N)CCC3` it is “inactive”.
The entry for `O=C(COc1ccccc1)Nc1ccc2c(c1)Cc1cc(NC(=O)COc3ccccc3)ccc1-2` is “inactive”; for `BrC(=C\c1ccccc1)/C=N/N1CCN(c2ccccc2)CC1` it is “inactive”; for `Cc1ccc(-c2ccc(CCC(=O)O)n2NC(=O)c2cccs2)cc1` it is “inactive”.
With `COc1cc(C=Nc2cccc(C)c2)c(O)c([N+](=O)[O-])c1`, the “percent span (inhibition)” value was “inactive”.
For the compound `COc1cc2[nH]c(=S)nc(NCCCOC(C)C)c2cc1OC`, the “percent span (inhibition)” value is “inactive”.
Regarding `O=C(Cc1ccccc1)OCCNC(=O)c1cccnc1`, the “percent span (inhibition)” value was “inactive”.
With `O=c1nc2c(O)cccn2c2c1c(=O)[nH]c1ccccc12`, the “percent span (inhibition)” value is “inactive”.
In the case of `O=C(/C=C\c1ccc(-c2ccccc2)o1)c1ccccc1`, the “percent span (inhibition)” value is “inactive”.
The entry for `CC1C=CCC2C(=O)N(c3ccc(OC(=O)c4cccs4)cc3)C(=O)C12` (centres undefined) is “inactive”; for `COc1cccc(NC(=O)CSc2nncn2N)c1` it is “inactive”.
Consider `CCOC(=O)c1nc(Nc2ccc(C(=O)OC)cc2)c2ccccc2n1`, for which the “percent span (inhibition)” value was “inactive”.
Regarding `O=C(NCc1ccccc1)C(=O)Nc1nc(C23CC4CC(CC(C4)C2)C3)cs1`, the “percent span (inhibition)” value was “inactive”.
Regarding `CC(=O)N1CCN(C(=O)c2ccc(-n3c(C)ccc3C)cc2)CC1`, the “percent span (inhibition)” value was “inactive”.
The entry for `Cc1ccc(C)n1-c1cccc(C(=O)O)c1` is “inactive”.
Regarding `Clc1ccc2c(N/N=C/c3cccc(Br)c3)ccnc2c1`, the “percent span (inhibition)” value was “inactive”.
Regarding `COc1cc2c(cc1OC)C(c1ccccc1F)OC(=O)C2` (centres undefined), the “percent span (inhibition)” value was “inactive”.
The entry for `COc1ccc2nc(C)cc(SCC(=O)N/N=C/c3ccc(O)cc3O)c2c1` is “inactive”; for `C1=CC2c3ccccc3NC(c3ccncc3)C2C1` (centres undefined) it is “inactive”; for `Cc1ccc(-c2cc(C(=O)Nc3ccccc3C)c3ccccc3n2)o1` it is “inactive”.
Consider `O=C(O)c1ccccc1NSc1ccccc1[N+](=O)[O-]`, for which the “percent span (inhibition)” value was “inactive”.
The entry for `CCc1cccc(NC(=O)COc2ccccc2)c1` is “inactive”; for `CC(=O)c1ccc2c(c1)C1C=CCC1C(c1ccncc1)N2` (centres undefined) it is “inactive”; for `Cc1onc(-c2ccccc2Cl)c1C(=O)Nc1nn[nH]n1` it is “inactive”.
`N#CC(C#N)=C1C=CC=CN1/C(=C\c1ccco1)C(=O)c1ccccc1`: the “percent span (inhibition)” value is “inactive”.
With `O=C(C[n+]1ccc(-c2nnc3n2CCC3)cc1)c1ccc(Cl)c(Cl)c1`, the “percent span (inhibition)” value was “inactive”.
As for `O=C1c2ccccc2-c2onc3ccc(NCCCn4ccnc4)c1c23`, the “percent span (inhibition)” value was “inactive”.
The entry for `O=C1C(=O)c2ccc(-c3ccccc3)cc2-c2ccccc21` is “inactive”; for `CC1Nc2ccccc2C(=O)N1NS(C)(=O)=O` (centres undefined) it is “inactive”; for `O=C(CSc1ccc(-c2ccccc2)nn1)NCc1ccco1` it is “inactive”.
The entry for `Cc1ccc2c(c1)c(C)c(C)n2CC(O)Cn1nc(C)c(Br)c1C` (centres undefined) is “inactive”.
The entry for `COc1cc(/C=N/Nc2nn3cnnc3c3ccccc23)ccc1O` is “inactive”; for `COc1ccc(CC(=O)Nc2ccc(-c3nc4cc(C)ccc4o3)c(O)c2)cc1OC` it is “inactive”.
As for `CCOC(=O)c1cccc(Nc2ncnc3ccccc23)c1`, the “percent span (inhibition)” value is “inactive”.
`Cc1cc(OCc2cn3cccnc3n2)ccc1Cl`: the “percent span (inhibition)” value was “inactive”.
The entry for `Cc1c(Cc2ccccc2)sc(N)c1C(N)=O` is “inactive”.
On to `CCOc1ccc(C(=O)Nc2nnn(CC)n2)cc1`, for which the “percent span (inhibition)” value was “inactive”.
The entry for `C/C(=N\NC(=O)Cc1cccn1C)c1ccc2ccccc2c1` is “inactive”.
The entry for `C=CCSc1nc(N)c2c(C)c(C)sc2n1` is “inactive”; for `CCN1CCN(c2cc(C)c3cc(NC(=S)N4CC(C)CC(C)C4)ccc3n2)CC1` (centres undefined) it is “inactive”; for `Cn1c(=O)c2cc(S(=O)(=O)Nc3cc(C(=O)O)cc(C(=O)O)c3)ccc2n(C)c1=O` it is “inactive”.
For `CC(C)c1ccc(/C=N/NC(=O)c2ccccc2Cl)cc1`, the “percent span (inhibition)” value is “inactive”.
As to `COc1ccc(NC(=O)/C(Cl)=C(/Cl)S(=O)Cc2ccccc2)cn1` (centres undefined), the “percent span (inhibition)” value was “inactive”.
Consider `OC(CNC1CCCCC1)COCCOc1ccc(Br)cc1` (centres undefined), for which the “percent span (inhibition)” value is “inactive”.
Regarding `CCCCNC(=O)c1ccc2nc(-c3ccco3)c(-c3ccco3)nc2c1`, the “percent span (inhibition)” value is “inactive”.
The entry for `CCN1CCN(c2cc(C)c3cc(NC(=S)N4CCN(c5ccccc5)CC4)ccc3n2)CC1` is “inactive”; for `COc1ccccc1Cn1nnc2c(=O)[nH]c(C3CCN(C(=O)c4ccc(C)cc4)CC3)nc21` it is “inactive”; for `COc1ccc(NS(=O)(=O)c2cc(NC(=O)c3ccc(C)o3)ccc2N2CCCCC2)cc1` it is “inactive”.
For `CCN1/C(=C/c2ccc3cc(C)ccc3[n+]2CC)Sc2cc(C)c(C)cc21`, the “percent span (inhibition)” value was “inactive”.
As for `CCc1nnc(NS(=O)(=O)c2ccc(N=CC3=C(O)CC(C)(C)CC3=O)cc2)s1`, the “percent span (inhibition)” value was “inactive”.
The entry for `Fc1ccccc1/C=C1\CCCC2=C1NC(=S)NC2c1ccccc1F` (centres undefined) is “inactive”; for `Cn1c(N)c(C(=O)COC(=O)c2cc(-c3ccco3)nc3ccccc23)c(=O)n(C)c1=O` it is “inactive”; for `COc1ccc(OC)c2sc(NC(=O)c3ccc(Br)s3)nc12` it is “inactive”.
The entry for `NC(=O)c1c(NC(=O)C2CCCO2)sc2c1CCCC2` (centres undefined) is “inactive”; for `Cc1sc2nc(C(C)C)nc(SCC(=O)N3c4ccccc4CC3C)c2c1C` (centres undefined) it is “inactive”.
On to `O=C(C1=C(Nc2ccccc2)c2ccccc2S(=O)(=O)N1)c1ccccc1`, for which the “percent span (inhibition)” value is “inactive”.
The entry for `CCOC(=O)c1c2c3c(cccc3[nH]c1=O)C(=O)c1ccccc1-2` is “inactive”; for `Cc1ccc(-c2nnc(Cc3ccc(Cl)cc3)o2)cc1` it is “inactive”.
The entry for `COC(=O)c1ccc(C)c(NC(=O)CCNC(=O)c2ccc([N+](=O)[O-])cc2)c1` is “inactive”; for `Cc1cc(-c2nnc3n2N=C(c2ccc(-c4ccccc4)cc2)CS3)n[nH]1` it is “inactive”; for `O=C(Nc1ccccn1)c1cc2ccccc2o1` it is “inactive”.
The entry for `CNC(=S)N(Cc1cccs1)Cc1cc2ccc(OC)cc2[nH]c1=O` is “inactive”.
Regarding `COC(=O)CSc1nccc(-c2cccs2)n1`, the “percent span (inhibition)” value was “inactive”.
Consider `COc1cccc(-n2nnnc2SCC(=O)Nc2cccc(NC(C)=O)c2)c1`, for which the “percent span (inhibition)” value was “inactive”.
As for `CCCCOc1ccc(Cc2c(Cl)nc(SC)nc2N2CCOCC2)cc1`, the “percent span (inhibition)” value is “inactive”.
In the case of `Cc1ccc(-c2cc(C(=O)Nc3cccnc3)c3ccccc3n2)o1`, the “percent span (inhibition)” value was “inactive”.
On to `O=C1NC(=O)C2(Cc3c(nc4ccccn4c3=O)N3CCCCCC32)C(=O)N1Cc1ccccc1` (centres undefined), for which the “percent span (inhibition)” value was “inactive”.
The entry for `OC(COc1ccc2ccccc2c1)CN1CCCC1` (centres undefined) is “inactive”; for `COc1ccc(-c2csc(NC(=O)/C(N=Nc3ccccc3)=C(\C)O)n2)cc1` it is “inactive”.
The entry for `O=C(c1cc(=O)c2ccccc2o1)N1CCN(c2ccccc2F)CC1` is “inactive”.
The entry for `CCc1nn2cc(C(=O)c3cc(C)ccc3O)cnc2c1-c1ccc(F)cc1` is “inactive”; for `CCOC(=O)C1CCCN(c2ncnc3c2cnn3-c2cccc(C)c2)C1` (centres undefined) it is “inactive”; for `CN(Cc1cccs1)C(=O)CCc1c[nH]c2ccccc12` it is “inactive”.
For `O=C(C1CCC(Cn2c(=S)[nH]c3ccccc3c2=O)CC1)N1CCN(c2ccccn2)CC1` (centres undefined), the “percent span (inhibition)” value is “inactive”.
For `COCc1cc(CN2CCCC(CNC(=O)c3ccc(F)cc3)C2)ccc1OC` (centres undefined), the “percent span (inhibition)” value is “inactive”.
The entry for `CC(C)COC(=O)/C(C#N)=C/c1cn(Cc2ccccc2)c2ccccc12` is “inactive”; for `Cc1cc(NC(=O)CSc2nnc(-c3cccnc3)n2Cc2ccccc2)no1` it is “inactive”; for `CCCCc1ccc(NC(=S)NCc2ccc(OC)cc2)cc1` it is “inactive”.
With `COc1cccc2c(SCC(=O)N/N=C/c3ccc(O)cc3O)cc(C)nc12`, the “percent span (inhibition)” value is “inactive”.
In the case of `COc1ccc(NC(=O)c2ccc(CN3CCN(c4ccccc4)CC3)cc2)cc1`, the “percent span (inhibition)” value is “inactive”.
The entry for `CC(C)CNC(=O)c1cccc(NC(=O)c2ccc(Cl)c([N+](=O)[O-])c2)c1` is “inactive”.
The entry for `Cc1ccc(/C=N/N(C)C2=NS(=O)(=O)c3ccccc32)o1` is “inactive”; for `COc1ccccc1Oc1ccc2c(c1)C(=O)N(c1cccc3ncccc13)C2=O` it is “inactive”; for `CCOC(=O)c1sc(NC(=O)c2ccncc2)c(C#N)c1C` it is “inactive”.
Consider `Fc1ccccc1-n1cc(-c2ccccc2)[nH]c1=S`, for which the “percent span (inhibition)” value is “inactive”.
The entry for `Cc1csc(SCCn2c(N3CCN(c4ccccc4)CC3)nc3c2c(=O)[nH]c(=O)n3C)n1` is “inactive”.
